Laboratory results as given in PMC6500773 (Psychopharmacology, 2018).
Like-named read-outs stand apart in the source and are kept apart here.

Columns and labels:
hDAT [1] = target: T1, hDAT (Homo sapiens, UniProt Q01959); experiment: Inhibition of [3H]DA uptake by HEK-hDAT cells; type: cell-based; conditions: for Ratio DAT/SERT: 1/(DAT IC50) divided by 1/(SERT IC50), uptake, higher = more DAT selective
hSERT [2] = target: T2, hSERT (Homo sapiens, UniProt P31645); experiment: Drug-induced release of preloaded [3H]5-HT from HEK-hSERT cells; type: cell-based; conditions: for releasing efficacy at hSERT: [3H]5-HT release; for % maximum release ± sem, hSERT [3H]5-HT: relative to maximal AUC induced by METH (0.3–1 mM)
T2 sequence (P31645 whole entry): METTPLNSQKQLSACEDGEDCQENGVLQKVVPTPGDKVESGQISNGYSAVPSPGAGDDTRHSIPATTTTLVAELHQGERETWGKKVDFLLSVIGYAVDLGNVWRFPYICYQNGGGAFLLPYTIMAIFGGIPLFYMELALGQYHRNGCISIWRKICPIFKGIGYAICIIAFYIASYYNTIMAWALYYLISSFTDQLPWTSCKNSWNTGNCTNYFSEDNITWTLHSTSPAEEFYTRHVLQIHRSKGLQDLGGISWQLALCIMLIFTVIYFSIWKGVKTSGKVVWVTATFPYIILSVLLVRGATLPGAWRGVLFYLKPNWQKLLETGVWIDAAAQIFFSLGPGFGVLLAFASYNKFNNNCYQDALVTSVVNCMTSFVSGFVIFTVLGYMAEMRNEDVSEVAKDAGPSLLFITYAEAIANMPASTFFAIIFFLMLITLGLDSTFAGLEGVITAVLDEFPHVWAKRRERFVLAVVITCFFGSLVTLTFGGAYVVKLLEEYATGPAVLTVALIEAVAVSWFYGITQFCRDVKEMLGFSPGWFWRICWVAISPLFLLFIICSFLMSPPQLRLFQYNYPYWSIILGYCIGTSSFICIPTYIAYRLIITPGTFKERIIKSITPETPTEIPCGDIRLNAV

hDAT [3] = target: T1, hDAT; experiment: Drug-induced release of preloaded [3H]DA from HEK-hDAT cells; type: cell-based; conditions: for releasing efficacy at hDAT: [3H]DA release; for % maximum release ± sem, hDAT [3H]DA: relative to maximal AUC induced by METH (1 or 10 μM)
hDAT [4] = target: T1, hDAT; experiment: Inhibition of [125I]RTI-55 binding, HEK-hDAT membranes
mouse striatum = conditions: administered orally, ref Fuwa et al. 2016; cited from earlier work
hNET [5] = target: T3, hNET (Homo sapiens, UniProt P23975); experiment: biochemical; type: binding
T3 sequence (P23975 whole entry): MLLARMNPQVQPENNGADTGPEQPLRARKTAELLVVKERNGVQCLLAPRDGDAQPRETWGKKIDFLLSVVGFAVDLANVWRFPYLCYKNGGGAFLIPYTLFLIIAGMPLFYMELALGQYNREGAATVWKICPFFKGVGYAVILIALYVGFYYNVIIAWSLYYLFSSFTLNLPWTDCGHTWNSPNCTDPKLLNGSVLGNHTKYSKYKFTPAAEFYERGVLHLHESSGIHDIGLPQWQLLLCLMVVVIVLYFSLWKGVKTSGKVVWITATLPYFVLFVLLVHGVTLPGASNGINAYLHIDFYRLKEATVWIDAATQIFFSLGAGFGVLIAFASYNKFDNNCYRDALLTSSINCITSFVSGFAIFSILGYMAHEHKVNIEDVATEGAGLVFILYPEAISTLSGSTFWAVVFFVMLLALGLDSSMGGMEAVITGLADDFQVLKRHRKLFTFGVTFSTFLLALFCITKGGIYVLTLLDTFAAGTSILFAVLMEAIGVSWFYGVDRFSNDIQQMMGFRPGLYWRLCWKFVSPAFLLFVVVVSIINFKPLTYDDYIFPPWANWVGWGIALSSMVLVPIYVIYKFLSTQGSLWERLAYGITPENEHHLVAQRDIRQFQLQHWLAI

hNET [6] = target: T3, hNET; experiment: Drug-induced release of preloaded [3H]NE from HEK-hNET cells; type: cell-based; conditions: for releasing efficacy at hNET: [3H]NE release; for % maximum release ± sem, hNET [3H]NE: relative to maximal AUC induced by METH (0.3 or 1 μM)
hNET [7] = target: T3, hNET; experiment: cell-based
hSERT [8] = target: T2, hSERT; experiment: Inhibition of [125I]RTI-55 binding, HEK-hSERT membranes
hSERT [9] = target: T2, hSERT; experiment: Inhibition of [3H]5-HT uptake by HEK-hSERT cells; type: cell-based
hDAT [10] = target: T1, hDAT; conditions: relative to maximal METH release; ref Eshleman et al. 2017; cited from earlier work
hNET [11] = target: T3, hNET; conditions: ref Eshleman et al. 2017, cited from earlier work
hSERT [12] = target: T2, hSERT; conditions: relative to maximal METH release; ref Eshleman et al. 2017; cited from earlier work
hDAT [13] = target: T1, hDAT; conditions: cited from earlier work; for Ratio DAT/SERT: 1/(DAT IC50) divided by 1/(SERT IC50), uptake, ref Eshleman et al. 2017
hNET [14] = target: T3, hNET; conditions: read-out: Inhibition of [3H]neurotransmitter uptake IC50 ± sem, hNET [3H]NE; HEK-hNET cells; ref Eshleman et al. 2017; cited from earlier work
[15] = read-out: Inhibition of [125I]RTI-55 binding Ki ± sem, hDAT, HEK-hDAT membranes
[16] = read-out: Inhibition of [125I]RTI-55 binding Ki ± sem, hNET, HEK-hNET membranes
[17] = read-out: Drug-induced release of [3H]neurotransmitter EC50 ± sem, hNET [3H]NE, HEK-hNET cells
[18] = read-out: Inhibition of [3H]neurotransmitter uptake IC50 ± sem, hNET [3H]NE, HEK-hNET cells

T1 sequence (Q01959 whole entry): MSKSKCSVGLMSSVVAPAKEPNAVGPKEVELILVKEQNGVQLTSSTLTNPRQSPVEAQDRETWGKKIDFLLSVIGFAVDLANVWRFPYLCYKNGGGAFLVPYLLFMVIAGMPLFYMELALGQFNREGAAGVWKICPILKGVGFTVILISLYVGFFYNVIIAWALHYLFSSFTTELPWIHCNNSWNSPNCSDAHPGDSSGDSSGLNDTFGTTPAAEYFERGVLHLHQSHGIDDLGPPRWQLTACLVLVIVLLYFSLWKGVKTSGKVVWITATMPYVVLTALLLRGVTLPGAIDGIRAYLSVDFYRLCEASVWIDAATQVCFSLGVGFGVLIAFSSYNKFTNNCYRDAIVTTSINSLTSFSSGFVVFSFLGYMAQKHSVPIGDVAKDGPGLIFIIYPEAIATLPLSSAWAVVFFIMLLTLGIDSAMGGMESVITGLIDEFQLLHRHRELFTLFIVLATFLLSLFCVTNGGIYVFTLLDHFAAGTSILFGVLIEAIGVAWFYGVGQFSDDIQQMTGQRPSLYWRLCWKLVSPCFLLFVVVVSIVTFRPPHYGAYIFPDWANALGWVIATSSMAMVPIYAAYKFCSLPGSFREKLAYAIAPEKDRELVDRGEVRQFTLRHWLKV

Structure (SMILES)	Ratio DAT/SERT (hDAT [1])	% maximum release ± sem, hSERT [3H]5-HT (hSERT [2]) [%]	% maximum release ± sem, hDAT [3H]DA (hDAT [3]) [%]	% maximum release ± sem, hNET [3H]NE (hNET [6]) [%]	Ki (hSERT [8]) [nM]	IC50 (hDAT [1]) [nM]	Ki (hDAT [4]) [nM]	Ki (hNET [5]) [nM]	IC50 (hNET [7]) [nM]	IC50 (hSERT [9]) [nM]	also measured
CNC(C)Cc1cc2ccccc2o1 (stereo not drawn) [2-MAPB, N,α-dimethyl-2-benzofuranethanamine]	3.0	77.3 ± 5.3	48.0 ± 2.6	63 ± 10	–	–	–	–	–	–	releasing efficacy at hSERT (hSERT [2]): partial release; releasing efficacy at hDAT (hDAT [3]): partial release; Ki (hDAT [4]; [15]): 1630 ± 440 nM; increase in extracellular 5-HT levels (mouse striatum): 6- to 12 fold; Ki (hNET [5]; [16]): 1990 ± 220 nM; releasing efficacy at hNET (hNET [6]): partial release; EC50 (hNET [6]; [17]): 450 ± 120 nM; IC50 (hNET [7]; [18]): 39.3 ± 5.2 nM
CCCCC(C(=O)c1ccc(F)cc1)N1CCCC1 (stereo not drawn) [4-F-α-PHP, 4’-fluoro-α–pyrrolidinohexanophenone]	240	–	–	–	8010 ± 840	38.2 ± 4.4	122 ± 27	1730 ± 250	218 ± 29	9110 ± 540	–
CCCC(NCC)C(=O)c1ccc(C)cc1 (stereo not drawn) [4-MEAP, 4-methyl-α-ethylaminopentiophenone]	6.4	–	–	–	–	–	–	–	–	–	fold increase in hSERT affinity (hSERT [8]; compared to pentedrone): 20 fold; fold decrease in hDAT selectivity (hDAT [1]; compared to pentedrone): 8 fold; fold decrease in DAT selectivity (hDAT [1]; compared to α-EPP): 10 fold; Ki (hDAT [4]; [15]): 123 ± 26 nM; Ki (hNET [5]; [16]): 576 ± 85 nM; IC50 (hNET [7]; [18]): 83 ± 18 nM; fold increase in hSERT uptake potency (hSERT [9]; compared to pentedrone): 8 fold
CCCCC(C(=O)c1ccc(C)cc1)N1CCCC1 (stereo not drawn) [4-Me-α-PHP, 4’-methyl-α–pyrrolidinohexanophenone]	120	–	–	–	4780 ± 260	13.2 ± 3.6	23 ± 6.2	750 ± 160	42 ± 11	1580 ± 400	–
CCNC(C)Cc1ccc2occc2c1 (stereo not shown) [5-EAPB, reference compound]	–	–	–	–	–	–	–	–	–	–	increase in extracellular 5-HT levels (mouse striatum): 6- to 12 fold
CNC(C)Cc1ccc2occc2c1 (stereo not drawn) [5-MAPB, N,α-dimethyl-5-benzofuranethanamine]	1.4	104.3 ± 5.7	53.8 ± 6.6	89.0 ± 8.0	–	–	–	–	–	–	releasing efficacy at hSERT (hSERT [2]): fully efficacious; releasing efficacy at hDAT (hDAT [3]): partially efficacious; Ki (hDAT [4]; [15]): 2660 ± 610 nM; increase in extracellular 5-HT levels (mouse striatum): 6- to 12 fold; Ki (hNET [5]; [16]): 3150 ± 270 nM; releasing efficacy at hNET (hNET [6]): partially efficacious; EC50 (hNET [6]; [17]): 580 ± 210 nM; IC50 (hNET [7]; [18]): 73 ± 18 nM
CNC(C)Cc1ccc2c(c1)CCO2 (stereo not shown) [5-MAPDB, 1-(2,3-dihydrobenzofuran-5-yl)-N-methylpropan-2-amine]	0.041	95.7 ± 8.9	32 ± 13	64.2 ± 4.7	8800 ± 1700	2790 ± 800	> 30000	> 30000	560 ± 180	113 ± 30	EC50 (hSERT [2]): 340 ± 35 nM; releasing efficacy at hSERT (hSERT [2]): fully efficacious; EC50 (hDAT [3]): 34700 ± 9600 nM; EC50 (hNET [6]): 840 ± 310 nM; selectivity for SERT over DAT (uptake potency) (hSERT [9]; uptake inhibition potencies): 25 fold
CNC(C)Cc1ccc2c(c1)OCO2 (stereo not shown) [MDMA, reference compound]	0.25	–	–	–	–	–	–	–	–	–	Ki (hDAT [4]; [15]): 31000 ± 4900 nM; Ki (hNET [5]; read-out: Inhibition of [125I]RTI-55 binding Ki ± sem, hNET): 15800 nM; % maximum release ± sem, hDAT [3H]DA (hDAT [10]): 94 ± 10%; EC50 (hNET [11]; [17]): 360 ± 92 nM; % maximum release ± sem, hNET [3H]NE (hNET [11]; relative to maximal METH release): 147 ± 15%; IC50 (hNET [7]; read-out: Inhibition of [3H]neurotransmitter uptake IC50 ± sem, hNET [3H]NE): 630 nM; % maximum release ± sem, hSERT [3H]5-HT (hSERT [12]): 85.1 ± 7.8%
CN[C@@H](C)Cc1ccccc1 [METH, methamphetamine, reference compound]	96	101.8 ± 3.1	106.7 ± 2.3	107.5 ± 8.7	150000 ± 17000	97 ± 13	4410 ± 430	2510 ± 240	–	9300 ± 1100	EC50 (hSERT [2]): 14500 ± 4200 nM; EC50 (hDAT [3]): 1200 ± 350 nM; EC50 (hNET [6]): 255 ± 78 nM; IC50 (hNET [7]; [18]): 25.8 ± 3 nM
CNC(COC)C(=O)c1ccc(C)cc1 (stereo not shown) [Mexedrone, 3-methoxy-2-(methylamino)-1-(p-tolyl)propan-1-one]	2.0	84 ± 13	3.04 ± 0.61	12.5 ± 3.1	22200 ± 6200	2750 ± 220	8390 ± 540	> 27600	3190 ± 980	5400 ± 1200	EC50 (hSERT [2]): 26100 ± 9300 nM; releasing efficacy at hSERT (hSERT [2]): full efficacy; EC50 (hDAT [3]): > 100000 nM; releasing efficacy at hDAT (hDAT [3]): no hDAT efficacy; EC50 (hNET [6]): > 61000 nM; releasing efficacy at hNET (hNET [6]): minimal hNET efficacy
CCCC(NC)C(=O)c1ccccc1 (stereo not shown) [Pentedrone]	–	–	–	–	–	–	–	–	–	–	Ratio DAT/SERT (hDAT [13]): 51; IC50 (hNET [14]): 239 ± 67 nM
CCCC(NC)C(=O)c1ccc2c(c1)OCO2 (stereo not shown) [Pentylone]	–	–	–	–	–	–	–	–	–	–	Ratio DAT/SERT (hDAT [13]): 4.9; IC50 (hNET [14]): 650 ± 160 nM
CCCC(Cc1ccccc1)N1CCCC1 (stereo not shown) [Prolintane, 1-[1-(phenylmethyl)butyl]-pyrrolidine]	11	–	–	–	2520 ± 330	100 ± 21	219 ± 19	560 ± 190	46 ± 6.8	1110 ± 350	fold higher hSERT uptake potency (hSERT [9]; compared to 4-F-α-PVP): 40 fold
CCNC(C)C(=O)c1ccc2c(c1)OCO2 (stereo not shown) [ethylone]	–	–	–	–	–	–	–	–	–	–	Ratio DAT/SERT (hDAT [13]): 0.27
CNC(C)C(=O)c1ccc(C)cc1 (stereo not shown) [mephedrone]	–	–	–	–	–	–	–	–	–	–	DAT selectivity (DAT/SERT) (hDAT [13]; ref Eshleman et al. 2013, Luethi et al. 2018): 5.2 fold
CCCC(C(=O)c1ccccc1)N1CCCC1 (stereo not drawn) [α-PVP]	–	–	–	–	–	–	–	–	–	–	Ratio DAT/SERT (hDAT [13]): 2900; IC50 (hNET [14]): 46 ± 18 nM
